In patent publication US8362000B2, “Azetidinyl diamides as monoacylglycerol lipase inhibitors” (Janssen Pharmaceutica NV, priority 2009, dated 2013):
Substitutions are numbered along the chain they refer to. Like-named read-outs stand apart in the source and are kept apart here.

Legend:
[1] = target: T1, mutant MGL (Homo sapiens, UniProt Q99685, L169S/L176S); experiment: MGL ThermoFluor assay - mutant; type: binding
T1 sequence (Q99685 1-303 L169S/L176S): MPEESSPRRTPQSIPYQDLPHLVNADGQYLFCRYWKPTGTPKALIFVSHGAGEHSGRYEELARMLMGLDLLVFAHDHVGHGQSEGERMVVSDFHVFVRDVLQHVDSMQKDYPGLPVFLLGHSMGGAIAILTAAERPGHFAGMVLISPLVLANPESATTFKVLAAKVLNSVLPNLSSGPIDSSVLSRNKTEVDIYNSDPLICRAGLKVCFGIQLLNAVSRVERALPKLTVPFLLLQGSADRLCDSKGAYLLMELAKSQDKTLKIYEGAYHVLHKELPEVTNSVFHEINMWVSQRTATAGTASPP

[2] = target: T2, purified wild type MGL (wt-MGLL 6H-11-313) (Homo sapiens, UniProt Q99685)
T2 sequence (Q99685 1-303): T1 sequence (Q99685 1-303 L169S/L176S) with S169L, S176L

[3] = ThermoFluor, compound concentration measured by qNMR, read-out: MGL mutant ThermoFluor qKd (μM) (using qNMR conc.)
[4] = ThermoFluor concentration-response, read-out: MGL mutant ThermoFluor Kd
[5] = ThermoFluor, compound concentration measured by qNMR, read-out: MGL mutant ThermoFluor qKd (using qNMR conc.)
[6] = ThermoFluor thermal stability binding assay, read-out: MGL mutant ThermoFluor Kd
[7] = compound concentration measured by qNMR, read-out: MGL mutant ThermoFluor qKd (using qNMR conc.)

IC50 [2] [nM]	Kd [1, 4] [µM]	SMILES	other results
3230	–	O=C(c1nc2cc(-c3ccc(F)cc3)ccc2[nH]1)N1CC(N2CCN(C(=O)c3nccs3)CC2)C1 [Cpd 1294, 5-(4-Fluorophenyl)-2-({3-[4-(1,3-thiazol-2-ylcarbon-yl)piperazin-1-yl]azetidin-1-yl}carbonyl)-1H-benzimidazole]	Kd [1, 3]: 4.41 µM
454	0.727	O=C(c1ccccc1)N1CCN(C2CN(C(=O)c3ccc(Oc4cccc(C(F)(F)F)c4)nc3)C2)CC1 [Cpd 514]	–
< 5	0.002	O=C(c1ccc2c(ccn2-c2cccc(C(F)(F)F)c2)c1)N1CC(N2CCN(C(=O)c3nccs3)CC2)C1 [Cpd 1356, 5-({3-[4-(1,3-Thiazol-2-ylcarbonyl)piperazin-1-yl]azetidin-1-yl}carbonyl)-1-[3-(trifluoromethyl)phenyl]-1H-indole]	–
1150	–	O=C(c1ccccc1)N1CCN(C2CN(C(=O)c3cc(-c4cccc(F)c4)c4[nH]ccc4c3)C2)CC1 [Cpd 600]	Kd [1, 3]: 1.97 µM
6100	62.5	O=C(c1cc2ccc(C(F)(F)F)nc2o1)N1CC(N2CCN(C(=O)c3nccs3)CC2)C1 [Cpd 844]	–
42	0.008	O=C(c1ccc2nc(-c3cccc(C(F)(F)F)c3)oc2c1)N1CC(N2CCN(C(=O)c3nccs3)CC2)C1 [Cpd 1158, 6-({3-[4-(1,3-Thiazol-2-ylcarbonyl)piperazin-1-yl]azetidin-1-yl}carbonyl)-2-[3-(trifluoromethyl)phenyl]-1,3-benzoxazole]	–
35	–	Cc1c(C(=O)N2CC(N3CCN(C(=O)c4nccs4)CC3)C2)[nH]c2ccc(-c3cccnc3F)cc12 [Cpd 1149, 5-(2-Fluoropyridin-3-yl)-3-methyl-2-({3-[4-(1,3-thiazol-2-ylcarbonyl)piperazin-1-yl]azetidin-1-yl}carbonyl)-1H-indole]	Kd [1, 3]: 0.004 µM
714	–	Cc1cc(-n2ccc3cc(C(=O)N4CC(N5CCN(C(=O)c6ccccc6)CC5)C4)ccc32)ccn1 [Cpd 630, 1-(2-Methylpyridin-4-yl)-5-({3-[4-(phenylcarbonyl)piperazin-1-yl]azetidin-1-yl}carbonyl)-1H-indole]	Kd [1, 5]: 0.195 µM
255	–	O=C(c1nccs1)N1CCN(C2CN(C(=O)c3cccc4oc(-c5ccc(Cl)cc5)nc34)C2)CC1 [Cpd 1220]	Kd [1, 6]: 0.015 µM
260	0.05	O=C(c1ccccc1)N1CCN(C2CN(C(=O)c3sc4cc(Cl)ccc4c3C(F)(F)F)C2)CC1 [Cpd 512]	–
18	–	O=C(c1ccc2c(ccn2-c2ccc(F)cn2)c1)N1CC(N2CCN(C(=O)c3nccs3)CC2)C1 [Cpd 1121, 1-(5-Fluoropyridin-2-yl)-5-({3-[4-(1,3-thiazol-2-ylcarbonyl)piperazin-1-yl]azetidin-1-yl}carbonyl)-1H-indole]	Kd [1, 5]: 0.042 µM
5140	–	Cc1c(C(=O)N2CCN(C3CN(C(=O)c4ccc[nH]4)C3)CC2)n(C)c2ccc(Cl)cc12 [Cpd 839]	Kd [1, 5]: 2.5 µM
3300	–	Cc1nc2cc(C(=O)N3CC(N4CCN(C(=O)c5cscn5)CC4)C3)ccc2n1-c1ccccc1 [Cpd 1296]	Kd [1, 7]: 0.197 µM
574	1.84	O=C(c1ccc(CS(=O)(=O)c2cccc(C(F)(F)F)c2)cc1)N1CC(N2CCN(C(=O)c3nccs3)CC2)C1 [Cpd 976, 1-(1,3-Thiazol-2-ylcarbonyl)-4-(1-{[4-({[3-(trifluoromethyl)phenyl]sulfonyl}methyl)phenyl]carbonyl}azetidin-3-yl)piperazine]	–
316	–	O=C(c1ccc2c(c1)ncn2-c1ccc(C(F)(F)F)cc1)N1CC(N2CCN(C(=O)c3cscn3)CC2)C1 [Cpd 1231]	Kd [1, 7]: 0.131 µM
96	0.017	Cc1c(C(=O)N2CCN(C3CN(C(=O)c4nccs4)C3)CC2)sc2cc(C(F)(F)F)ccc12 [Cpd 704]	–
829	–	O=C(c1ccc(-c2cccc(C(F)(F)F)c2)cc1)N1CCN(C2CN(C(=O)c3cocn3)C2)CC1 [Cpd 1258]	Kd [1, 6]: 0.02 µM
219	–	Cc1cc(C(=O)N2CC(N3CCN(C(=O)c4nccs4)CC3)C2)ccc1Br [Cpd 727]	Kd [1, 5]: 0.251 µM
468	0.328	Cc1c(C(=O)N2CC(N3CCN(C(=O)c4cscn4)CC3)C2)[nH]c2ccc(Cl)cc12 [Cpd 755]	–
97	–	O=C(c1ccc2c(ccn2-c2ccccn2)c1)N1CC(N2CCN(C(=O)c3ccc[nH]3)CC2)C1 [Cpd 1189, 1-Pyridin-2-yl-5-({3-[4-(1H-pyrrol-2-ylcarbonyl)piperazin-1-yl]azetidin-1-yl}carbonyl)-1H-indole]	Kd [1, 5]: 0.153 µM
189	0.172	CCCCC/C=C\C/C=C\CCCCCCCC(=O)N1CC(N2CCN(C(=O)c3nccs3)CC2)C1 [Cpd 638]	Kd [1, 5]: 0.264 µM
< 5	–	O=C(c1ccc2c(cnn2Cc2ccc(C(F)(F)F)cc2)c1)N1CC(N2CCN(C(=O)c3nccs3)CC2)C1 [Cpd 1036, 5-({3-[4-(1,3-Thiazol-2-ylcarbonyl)piperazin-1-yl]azetidin-1-yl}carbonyl)-1-[4-(trifluoromethyl)benzyl]-1H-indazole]	Kd [1, 7]: 0.005 µM

IC50 [2] [nM]	Kd [1, 4] [µM]	SMILES	other results
2700	1	O=C(c1cc2cc(Cl)ccc2o1)N1CC(N2CCN(C(=O)c3nccs3)CC2)C1 [Cpd 818]	–
239	0.002	Cc1nc2cc(C(=O)N3CC(N4CCN(C(=O)c5nccs5)CC4)C3)ccc2n1C1CCCCC1 [Cpd 732]	–
1230	–	Cc1cc(C(=O)N2CC(N3CCN(C(=O)c4nccs4)CC3)C2)c(C)n1CC(F)(F)F [Cpd 788]	Kd [1, 5]: 1.98 µM
543	–	O=C(c1ccccc1)N1CCN(C2CN(C(=O)c3ccc4c(ccn4-c4ccc(F)cn4)c3)C2)CC1 [Cpd 596, 1-(5-Fluoropyridin-2-yl)-5-({3-[4-(phenylcarbonyl)piperazin-1-yl]azetidin-1-yl}carbonyl)-1H-indole]	Kd [1, 5]: 0.628 µM
9	–	O=C(c1ccc(-c2cccc(C(F)(F)F)c2)cc1)N1CC(N2CCN(C(=O)c3cc(Br)cs3)CC2)C1 [Cpd 1087]	Kd [1, 3]: 0.023 µM
1720	–	O=C(c1ccccc1)N1CCN(C2CN(C(=O)c3cccc4[nH]c(-c5ccc(F)cc5)nc34)C2)CC1 [Cpd 602]	Kd [1, 6]: 0.5 µM
5270	–	Cc1cc(C(=O)N2CC(N3CCN(C(=O)c4nccs4)CC3)C2)c(C)n1Cc1ccc(S(N)(=O)=O)cc1 [Cpd 1042]	Kd [1, 5]: 5 µM
1710	–	O=C(c1cscn1)N1CCN(C2CN(C(=O)c3sc4cc(C(F)(F)F)ccc4c3Cl)C2)C(C(F)(F)F)C1 (centres unmarked) [Cpd 801]	Kd [1, 6]: 52.5 µM
2810	–	O=C(c1ccc2[nH]ncc2c1)N1CC(N2CCN(C(=O)c3nccs3)CC2)C1 [Cpd 820, 5-({3-[4-(1,3-Thiazol-2-ylcarbonyl)piperazin-1-yl]azetidin-1-yl}carbonyl)-1H-indazole]	Kd [1, 3]: 0.996 µM
29	–	Cn1cc(-c2cccc(F)c2)c2ccc(C(=O)N3CC(N4CCN(C(=O)c5nccs5)CC4)C3)cc21 [Cpd 1142]	Kd [1, 7]: 0.001 µM
8570	10	O=C(c1ccccc1)N1CCN(C2CN(C(=O)c3ccc(Oc4cccnc4)cc3)C2)CC1 [Cpd 527]	–
7280	1	COc1ccc2c(C)c(C(=O)N3CC(N4CCN(C(=O)c5cscn5)CC4)C3)oc2c1 [Cpd 850]	–
3020	–	CN(C(=O)Cn1ccc2cc(C(=O)N3CC(N4CCN(C(=O)c5cscn5)CC4)C3)ccc21)c1ccccc1 [Cpd 1032]	Kd [1, 7]: 1.1 µM
> 16700	–	O=C(c1cscn1)N1CC(N2CCN(C(=O)c3cc4cc(Br)cnc4o3)CC2)C1 [Cpd 1449]	Kd [1, 6]: 3.19 µM
253	0.5	O=C(c1ccccc1)N1CCN(C2CN(C(=O)c3ccc4nc(-c5ccccc5)sc4c3)C2)CC1 [Cpd 592, 2-Phenyl-6-({3-[4-(phenylcarbonyl)piperazin-1-yl]azetidin-1-yl}carbonyl)-1,3-benzothiazole]	–
799	0.185	O=C(c1cscn1)N1CC(N2CCN(C(=O)c3cc4cc(C(F)(F)F)ccc4[nH]3)CC2)C1 [Cpd 772]	–
311	0.01	Cn1cc(-c2cccc(C(F)(F)F)c2)c2ccc(C(=O)N3CC(N4CCN(C(=O)c5ccccc5)CC4)C3)cc21 [Cpd 593]	–
2970	–	Cc1nc2cc(Cl)cc(Cl)c2cc1C(=O)N1CC(N2CCN(C(=O)c3nccs3)CC2)C1 [Cpd 823]	Kd [1, 5]: 1.25 µM
< 5	–	O=C(c1ccc(-c2nc(-c3cccc(C(F)(F)F)c3)cs2)cc1)N1CC(N2CCN(C(=O)c3nccs3)CC2)C1 [Cpd 1332]	Kd [1, 5]: 0.008 µM
950	–	O=C(c1ccc(-c2ccccc2)cc1)N1CC(N2CCN(C(=O)c3ccon3)CC2)C1 [Cpd 1262]	Kd [1, 6]: 0.278 µM
1130	2.15	O=C(c1ccc(Oc2cccc(F)n2)cc1)N1CC(N2CCN(C(=O)c3cscn3)CC2)C1 [Cpd 784]	–
6420	–	COc1ccc2cc(C(=O)N3CC(N4CCN(C(=O)c5nccs5)CC4)C3)c(C)nc2c1 [Cpd 845]	Kd [1, 5]: 1.62 µM
